Holding throughout (type): biochemical
The target in one assay is PLK1 (Homo sapiens, UniProt P53350). Briefly: PLK TR-FRET peptide assay, PLK1. As to conditions: GST-PLK1, 60 min reaction.
The next assay deals with PLK3 (Homo sapiens, UniProt Q9H4B4). Nature of the assay: PLK TR-FRET peptide assay, PLK3. The conditions noted are these: GST-PLK3, 15 min reaction, read-out: Plk3 IC50.
The next assay has as its target PLK2 (Homo sapiens, UniProt Q9NYY3). Nature of the assay: PLK TR-FRET peptide assay, PLK2. As to conditions: PLK TR-FRET peptide assay, GST-PLK2, 60 min reaction; read-out: Plk2 IC50.

The structures appear in SMILES notation.

Sequence of PLK1 (P53350 whole entry): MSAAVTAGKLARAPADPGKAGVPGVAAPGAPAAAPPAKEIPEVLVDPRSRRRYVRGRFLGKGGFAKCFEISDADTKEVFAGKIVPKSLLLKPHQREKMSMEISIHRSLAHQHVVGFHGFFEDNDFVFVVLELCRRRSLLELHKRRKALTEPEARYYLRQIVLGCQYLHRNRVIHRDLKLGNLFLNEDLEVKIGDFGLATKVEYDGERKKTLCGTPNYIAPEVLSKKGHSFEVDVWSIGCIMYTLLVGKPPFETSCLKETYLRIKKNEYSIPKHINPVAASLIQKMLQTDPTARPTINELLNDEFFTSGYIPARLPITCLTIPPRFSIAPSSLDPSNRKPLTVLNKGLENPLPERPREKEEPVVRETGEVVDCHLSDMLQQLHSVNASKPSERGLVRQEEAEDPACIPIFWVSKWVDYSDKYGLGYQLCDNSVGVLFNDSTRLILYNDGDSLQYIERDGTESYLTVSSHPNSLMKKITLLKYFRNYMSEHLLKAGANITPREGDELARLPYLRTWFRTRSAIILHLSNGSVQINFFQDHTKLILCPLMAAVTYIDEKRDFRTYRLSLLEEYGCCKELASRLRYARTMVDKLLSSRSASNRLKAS
Sequence of PLK2 (Q9NYY3 whole entry): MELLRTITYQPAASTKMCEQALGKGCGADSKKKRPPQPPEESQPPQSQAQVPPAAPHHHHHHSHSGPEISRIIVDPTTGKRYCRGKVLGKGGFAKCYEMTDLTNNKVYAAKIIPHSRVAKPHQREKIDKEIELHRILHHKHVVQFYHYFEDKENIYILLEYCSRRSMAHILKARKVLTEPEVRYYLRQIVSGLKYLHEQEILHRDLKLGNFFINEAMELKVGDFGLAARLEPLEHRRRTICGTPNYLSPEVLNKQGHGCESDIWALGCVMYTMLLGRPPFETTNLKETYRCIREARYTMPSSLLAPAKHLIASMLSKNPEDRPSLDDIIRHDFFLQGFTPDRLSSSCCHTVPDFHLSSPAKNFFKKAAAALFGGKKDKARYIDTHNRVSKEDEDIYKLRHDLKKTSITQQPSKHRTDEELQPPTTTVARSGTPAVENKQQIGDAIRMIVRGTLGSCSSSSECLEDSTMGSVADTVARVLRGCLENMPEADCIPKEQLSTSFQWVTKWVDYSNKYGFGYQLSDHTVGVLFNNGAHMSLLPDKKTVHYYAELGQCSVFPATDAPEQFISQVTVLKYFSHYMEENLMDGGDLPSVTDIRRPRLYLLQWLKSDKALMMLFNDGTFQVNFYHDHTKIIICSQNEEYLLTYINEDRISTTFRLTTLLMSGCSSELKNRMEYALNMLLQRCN
Sequence of PLK3 (Q9H4B4 whole entry): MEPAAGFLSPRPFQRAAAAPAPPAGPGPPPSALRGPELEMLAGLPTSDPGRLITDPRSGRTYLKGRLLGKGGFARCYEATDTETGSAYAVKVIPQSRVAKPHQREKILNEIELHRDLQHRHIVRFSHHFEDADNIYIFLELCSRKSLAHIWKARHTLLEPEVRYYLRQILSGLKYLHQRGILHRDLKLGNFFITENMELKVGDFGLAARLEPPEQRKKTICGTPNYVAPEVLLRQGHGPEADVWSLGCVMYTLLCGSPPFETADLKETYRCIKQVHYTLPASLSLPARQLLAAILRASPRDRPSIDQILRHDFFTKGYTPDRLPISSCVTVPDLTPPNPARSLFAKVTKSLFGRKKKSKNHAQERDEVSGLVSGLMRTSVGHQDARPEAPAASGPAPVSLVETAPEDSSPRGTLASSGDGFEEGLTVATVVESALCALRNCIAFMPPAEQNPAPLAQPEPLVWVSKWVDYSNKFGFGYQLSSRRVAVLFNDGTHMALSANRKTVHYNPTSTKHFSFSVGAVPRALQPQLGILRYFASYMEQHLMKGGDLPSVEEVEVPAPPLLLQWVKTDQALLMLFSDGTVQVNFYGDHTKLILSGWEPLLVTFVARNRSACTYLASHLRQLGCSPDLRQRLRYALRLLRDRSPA

In the case of `CC[C@@H]1C(=O)N(C)c2cnc(-c3cccc(NS(C)(=O)=O)c3)nc2N1C1CCCC1` [Example 53, (R)—N-(3-(8-cyclopentyl-7-ethyl-5-methyl-6-oxo-5,6,7,8-tetrahydropteridin-2-yl)phenyl)methanesulfonamide], the IC50 against PLK1 is 1 to 10 µM; on PLK3, 1 to 10 µM; on PLK2, less than 1000 nM.
Turning to `[2H]C([2H])([2H])N1C(=O)C(C([2H])([2H])C([2H])([2H])[2H])N(C([2H])(C([2H])([2H])[2H])C([2H])([2H])[2H])c2nc(-n3ccnc3-c3cccc(F)c3)ncc21` (racemic) [Example 180, 7-perdeuteroethyl-2-(2-(3-fluorophenyl)-1H-imidazol-1-yl)-8-perdeuteroisopropyl-5-trideuteromethyl-7,8-dihydropteridin-6(5H)-one], the half-inhibitory concentration (IC50) at PLK1 was less than 1 µM; at PLK3, 1 to 10 µM; on PLK2, less than 1000 nM.
Taken in the same sequence, the figures for `CC[C@@H]1C(=O)N(C)c2cnc(-n3nccc3-c3ccccc3)nc2N1C1CCC1` [Example 207, (R)-8-cyclobutyl-7-ethyl-5-methyl-2-(5-phenyl-1H-pyrazol-1-yl)-7,8-dihydropteridin-6(5H)-one] were less than 1 µM, 1 to 10 µM and less than 1000 nM.
Taken in the same sequence, the figures for `CC[C@@H]1C(=O)N(C)c2cnc(-n3ccnc3N3CCCC3)nc2N1C1CCCC1` [Example 86, (R)-8-cyclopentyl-7-ethyl-5-methyl-2-(2-(pyrrolidin-1-yl)-1H-imidazol-1-yl)-7,8-dihydropteridin-6(5H)-one] were 10 to 50 µM, more than 50 µM and 1000 to 10000 nM.
Taken in the same sequence, the figures for `CCC12CCCCN1c1nc(-n3ccnc3-c3cccc(F)c3F)ncc1N(C)C2=O` (racemic) [Example 248, (+/−) 2-(2-(2,3-difluorophenyl)-1H-imidazol-1-yl)-6a-ethyl-5-methyl-7,8,9,10-tetrahydro-5H-pyrido[2,1-h]pteridin-6(6aH)-one] were 1 to 10 µM, 10 to 50 µM and less than 1000 nM.
`CC[C@@H]1C(=O)N(C)c2cnc(-n3ccnc3-c3ccc(F)cc3F)nc2N1C1CC(F)(F)C1` [Example 260, (R)-8-(3,3-difluorocyclobutyl)-2-(2-(2,4-difluorophenyl)-1H-imidazol-1-yl)-7-ethyl-5-methyl-7,8-dihydropteridin-6(5H)-one]: the IC50 was 1 to 10 µM against PLK1, 10 to 50 µM on PLK3 and less than 1000 nM at PLK2.
The corresponding values for `CC[C@]12CCCCN1c1nc(-n3ccnc3-c3ccc(F)cc3F)ncc1N(C)C2=O` [Example 270, (R)-2-(2-(2,4-difluorophenyl)-1H-imidazol-1-yl)-6a-ethyl-5-methyl-7,8,9,10-tetrahydro-5H-pyrido[2,1-h]pteridin-6(6aH)-one] are more than 50 µM, more than 50 µM and 10000 to 50000 nM.
The corresponding values for `[2H]C([2H])([2H])N1C(=O)C(C([2H])([2H])C([2H])([2H])[2H])N(C([2H])(C([2H])([2H])[2H])C([2H])([2H])[2H])c2nc(-n3ccnc3-c3ccc(C(F)(F)F)cc3)ncc21` (stereo not drawn) [Example 161, 7-perdeuteroethyl-8-perdeuteroisopropyl-5-trideuteromethyl-2-(2-(4-(trifluoromethyl)phenyl)-1H-imidazol-1-yl)-7,8-dihydropteridin-6(5H)-one] are 1 to 10 µM, 1 to 10 µM and less than 1000 nM.
Taken in the same sequence, the figures for `CC[C@@H]1C(=O)N(C)c2cnc(-c3ccc(S(C)(=O)=O)cc3)nc2N1C1CCCC1` [Example 64, (R)-8-cyclopentyl-7-ethyl-5-methyl-2-(4-(methylsulfonyl)phenyl)-7,8-dihydropteridin-6(5H)-one] were less than 1 µM, 1 to 10 µM and less than 1000 nM.
As to `CN1C(=O)C2(CC(F)(F)F)CCCN2c2nc(-n3ccnc3-c3ccccc3)ncc21` (stereo not drawn) [Example 339, 5-methyl-2-(2-phenyl-1H-imidazol-1-yl)-6a-(2,2,2-trifluoroethyl)-6a,7,8,9-tetrahydropyrrolo[2,1-h]pteridin-6(5H)-one], the IC50 against PLK1 is 10 to 50 µM; at PLK3, 10 to 50 µM; on PLK2, less than 1000 nM.
Turning to `CC[C@@H]1C(=O)N(C)c2cnc(-c3ccncc3NC(=O)OC)nc2N1C1CCCC1` [Example 114, (R)-methyl 4-(8-cyclopentyl-7-ethyl-5-methyl-6-oxo-5,6,7,8-tetrahydropteridin-2-yl)pyridin-3-ylcarbamate], the IC50 at PLK1 is 1 to 10 µM; on PLK3, 10 to 50 µM; on PLK2, less than 1000 nM.
For `CC[C@@H]1C(=O)N(C)c2cnc(-c3ccncc3-c3ccccc3)nc2N1C1CCC1` [Example 96, (R)-8-cyclobutyl-7-ethyl-5-methyl-2-(3-phenylpyridin-4-yl)-7,8-dihydropteridin-6(5H)-one], the results for the IC50 against PLK1, at PLK3 and on PLK2 were less than 1 µM, less than 1 µM and less than 1000 nM, respectively.
With `CC[C@@H]1C(=O)N(C)c2cnc(-c3scnc3-c3ccn[nH]3)nc2N1C(C)C` [Example 348, (R)-2-(4-(1H-pyrazol-5-yl)thiazol-5-yl)-7-ethyl-8-isopropyl-5-methyl-7,8-dihydropteridin-6(5H)-one], the figures for the half-inhibitory concentration (IC50) against PLK1, on PLK3 and at PLK2 were 1 to 10 µM, 1 to 10 µM and less than 1000 nM, respectively.
On to `CCC1C(=O)N(C)c2cnc(-c3cn[nH]c3-c3nccs3)nc2N1c1ccc(F)cc1` (stereo not drawn) [Example 370], for which the half-inhibitory concentration (IC50) against PLK1 is less than 1 µM; at PLK3 it was 1 to 10 µM; on PLK2 it was less than 1000 nM.
Regarding `CC[C@@H]1C(=O)N(C)c2cnc(-n3cccn3)nc2N1C1CCCC1` [Example 42, (R)-8-cyclopentyl-7-ethyl-5-methyl-2-(1H-pyrazol-1-yl)-7,8-dihydropteridin-6(5H)-one], the figures for the IC50 against PLK1, on PLK3 and on PLK2 were 1 to 10 µM, 10 to 50 µM and less than 1000 nM, respectively.
As to `CC[C@@H]1C(=O)N(C)c2cnc(-n3ccnc3C3=CCOCC3)nc2N1C1CCCC1` [Example 84, (R)-8-cyclopentyl-2-(2-(3,6-dihydro-2H-pyran-4-yl)-1H-imidazol-1-yl)-7-ethyl-5-methyl-7,8-dihydropteridin-6(5H)-one], the figures for the IC50 against PLK1, on PLK3 and on PLK2 were 1 to 10 µM, 10 to 50 µM and less than 1000 nM, respectively.
The corresponding values for `CC[C@@H]1C(=O)N(C)c2cnc(-n3ncnc3-c3cccc4ncccc34)nc2N1C1CCC1` [Example 215, (R)-8-cyclobutyl-7-ethyl-5-methyl-2-(5-(quinolin-5-yl)-1H-1,2,4-triazol-1-yl)-7,8-dihydropteridin-6(5H)-one] are 1 to 10 µM, 1 to 10 µM and 1000 to 10000 nM.
The corresponding values for `CC[C@@H]1C(=O)N(C)c2cnc(N3CCN(c4cnccn4)CC3)nc2N1C1CCCC1` [Example 223, (R)-8-cyclopentyl-7-ethyl-5-methyl-2-(4-(pyrazin-2-yl)piperazin-1-yl)-7,8-dihydropteridin-6(5H)-one] are 1 to 10 µM, more than 50 µM and 1000 to 10000 nM.
Turning to `CC[C@@H]1C(=O)N(C)c2cnc(-c3ccncc3NC(=O)OC(C)(C)C)nc2N1C1CCCC1` [Example 92, (R)-tert-butyl 4-(8-cyclopentyl-7-ethyl-5-methyl-6-oxo-5,6,7,8-tetrahydropteridin-2-yl)pyridin-3-ylcarbamate], the IC50 was 10 to 50 µM at PLK1, more than 50 µM at PLK3 and 1000 to 10000 nM on PLK2.
Taken in the same sequence, the figures for `CC[C@@H]1C(=O)N(C)c2cnc(-c3ccncc3NS(C)(=O)=O)nc2N1C(C)C` [Example 119, (R)—N-(4-(7-ethyl-8-isopropyl-5-methyl-6-oxo-5,6,7,8-tetrahydropteridin-2-yl)pyridin-3-yl)methanesulfonamide] were more than 50 µM, more than 50 µM and 1000 to 10000 nM.
Taken in the same sequence, the figures for `[2H]C([2H])([2H])N1C(=O)C(C([2H])([2H])C([2H])([2H])[2H])N(C([2H])(C([2H])([2H])[2H])C([2H])([2H])[2H])c2nc(-n3ccnc3-c3ccc(F)c(F)c3)ncc21` (stereo not drawn) [Example 169, 2-(2-(3,4-difluorophenyl)-1H-imidazol-1-yl)-7-perdeuteroethyl-8-perdeuteroisopropyl-5-trideuteromethyl-7,8-dihydropteridin-6(5H)-one] were 1 to 10 µM, 10 to 50 µM and less than 1000 nM.
The corresponding values for `CC[C@@H]1C(=O)N(C)c2cnc(-n3ccnc3-c3ccc(C(F)(F)F)cc3)nc2N1C(C)C` [Example 166, (R)-7-ethyl-8-isopropyl-5-methyl-2-(2-(4-(trifluoromethyl)phenyl)-1H-imidazol-1-yl)-7,8-dihydropteridin-6(5H)-one] are 1 to 10 µM, 10 to 50 µM and less than 1000 nM.
As for `CC[C@@H]1C(=O)N(C)c2cnc(-c3cn[nH]c3-c3nccs3)nc2N1C(C)C1CC1` (stereo partly drawn) [Example 357, (7R)-8-(1-cyclopropylethyl)-7-ethyl-5-methyl-2-(5-(thiazol-2-yl)-1H-pyrazol-4-yl)-7,8-dihydropteridin-6(5H)-one], the results for the IC50 on PLK1, on PLK3 and on PLK2 were less than 1 µM, 1 to 10 µM and less than 1000 nM, respectively.
Taken in the same sequence, the figures for `CC[C@@H]1C(=O)N(C)c2cnc(-c3ccncc3NC(=O)c3ccccc3)nc2N1C(C)C` [Example 104, (R)—N-(4-(7-ethyl-8-isopropyl-5-methyl-6-oxo-5,6,7,8-tetrahydropteridin-2-yl)pyridin-3-yl)benzamide] were 1 to 10 µM, 1 to 10 µM and less than 1000 nM.
Taken in the same sequence, the figures for `CC[C@@H]1C(=O)N(C)c2cnc(-n3ccnc3-c3ccc(F)cc3)nc2N1C(C)C` [Example 212, (R)-7-ethyl-2-(2-(4-fluorophenyl)-1H-imidazol-1-yl)-8-isopropyl-5-methyl-7,8-dihydropteridin-6(5H)-one] were 1 to 10 µM, 1 to 10 µM and less than 1000 nM.
